Values joined by “and” are separate entries in the source; they are usually repeats but may differ in a detail not shown here. Equal entries are not always repeated. Where two headings read alike, the source gives them in different places. Peptide text beside a SMILES is read from it. * marks the point of attachment. Cbz = O=C(OCc1ccccc1)*
Key:
[1] = biological target: T1, Halo-EGFP-NanoLuc-FKBP^F36V (H-E-N-F) fusion protein (UniProt P0A3G2+P62942+Q9GV45, A155T/A167V/A172T/A224E/A31E/A60N/A81I/C128F/C176G/D78G/E160K/E257K/F37V/F95D/H272N/I117V/K175M/K195N/K70R/L47V/L54V/L88M/L99Q/M102K/N193R/N227D/P142E/P291S/Q151K/Q38R/Q45L/S2A/S58T/T264A/V71I/Y165I/Y273L/Y87F); type: cell-based
[2] = biological target: recombinant NanoLuc enzyme (Oplophorus gracilirostris, UniProt Q9GV45, A31E/A60N/A81I/F95D/I117V/K70R/L54V/L99Q/M102K/N193R/P142E/Q151K/Q38R/Q45L/V71I/Y165I); type: biochemical; conditions: replicates
[3] = system: NanoLuc; conditions: read-out: IC50 against the enzymatic activity of NanoLuc; cited from earlier work
[4] = biological target: T1, Halo-EGFP-NanoLuc-FKBP^F36V (H-E-N-F) fusion protein; type: cell-based; conditions: 125-500 nM, 5 h
[5] = system: wild-type HT29 cells; experiment: Necroptosis assay (PI exclusion, flow cytometry), wild-type HT29 cells, TNF+SM+IDN; type: cell-based, human; conditions: sheet S5F
Protocol: To simulate necroptosis, cells were seeded into 96-well plates ±40 ng/mL doxycycline, to induce construct expression, and treated with 100 ng/mL FLAG-TNF (recombinant human, in-house), 500 nM compound A Smac mimetic (kindly gifted by TetraLogics Pharmaceuticals) and 5 μM IDN-6556 (Cayman) or 10 uM Z-VAD-fmk (Selleckchem) overnight (16–24 h). Degrader compounds or a DMSO vehicle control were added for 5 h, as stated in the Fig. legends. Cells were detached using Trypsin-EDTA (Merck) and resuspended in cell supernatants containing 10 μg/mL propidium iodide (PI). PI exclusion analysis was performed using an LSR II flow cytometer (Becton Dickinson, NJ) with 10,000 single-cell events per sample. Flow cytometry data were analysed using WEASEL version 2.7 software (Frank Battye).
Supplementary Figure 5. […]
NC4. Data are representative of N = 3 independent experiments. f-h. HT29 cells were stimulated with DMSO (control) or 500 nM of degrader for 5 hours before the addition of TNF (100 ng/mL) + Smac mimetic (compound A; 500 nM-1 µM) + caspase inhibitor; Emricasan (IDN) (5 µM), for 24 hours. Cell death was assessed by flow cytometric analysis of PI exclusion. N = 3 replicates (symbols) is shown, EB; mean ± SD. Data are representative of N = 3 independent experiments. i. Representative flow cytometry gating strategy. Source data are provided as a Source Data file.

[6] = 62.5nM, sheet S3B, replicate wells
[7] = 250nM, sheet S3B, replicate wells
[8] = 500nM, sheet S3B, replicate wells
[9] = 1uM, sheet S3B, replicate wells

T1 sequence (Q9GV45 other isoform, or with tags, fused parts or gaps with the stated changes): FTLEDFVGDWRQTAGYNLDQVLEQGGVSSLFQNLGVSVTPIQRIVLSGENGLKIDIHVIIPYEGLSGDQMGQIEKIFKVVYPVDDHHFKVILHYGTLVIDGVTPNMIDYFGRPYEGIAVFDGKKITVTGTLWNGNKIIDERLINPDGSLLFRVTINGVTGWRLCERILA
T1 sequence (P0A3G2 other isoform, or with tags, fused parts or gaps with the stated changes): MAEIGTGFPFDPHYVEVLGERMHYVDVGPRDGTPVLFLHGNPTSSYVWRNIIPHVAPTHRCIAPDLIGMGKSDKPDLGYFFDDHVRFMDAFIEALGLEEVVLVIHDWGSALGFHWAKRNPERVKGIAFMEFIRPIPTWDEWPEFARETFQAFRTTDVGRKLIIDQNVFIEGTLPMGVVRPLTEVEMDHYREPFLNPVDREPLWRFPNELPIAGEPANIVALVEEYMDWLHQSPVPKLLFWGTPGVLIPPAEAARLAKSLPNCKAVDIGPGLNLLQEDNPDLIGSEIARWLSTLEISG
T1 sequence (P62942 whole entry F37V, the tested form may be a part): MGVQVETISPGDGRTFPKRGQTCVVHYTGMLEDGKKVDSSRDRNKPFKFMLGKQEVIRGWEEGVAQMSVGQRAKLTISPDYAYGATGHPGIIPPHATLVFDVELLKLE
Chain of recombinant NanoLuc enzyme (Q9GV45 other isoform, or with tags, fused parts or gaps with the stated changes): as the sequence (Q9GV45 other isoform, or with tags, fused parts or gaps with the stated changes) above

Structure (SMILES): O=C1CCC(N2C(=O)c3cccc(OCCOCCCCCCCl)c3C2=O)C(=O)N1 (stereo not drawn) [HC3]
- Blank corrected (470-80) [1, 6]: 383533 and 318115 and 323446 and 301555
- Fold Change [1, 6]: 27.1169 and 22.4917 and 22.8686 and 21.3208
- Blank corrected (470-80) [1, 7]: 323125 and 344451 and 351301 and 328848
- Fold Change [1, 7]: 22.8459 and 24.3537 and 24.838 and 23.2505
- Blank corrected (470-80) [1, 8]: 366778 and 337071 and 347923 and 313983
- Fold Change [1, 8]: 25.9323 and 23.8319 and 24.5992 and 22.1995
- Blank corrected (470-80) [1, 9]: 388451 and 372097 and 370806 and 376397
- Fold Change [1, 9]: 27.4646 and 26.3084 and 26.2171 and 26.6124

Structure (SMILES): O=C(COCCOCCCCCCCl)NCCCCNc1cccc2c1C(=O)N(C1CCC(=O)NC1=O)C2=O (stereo not drawn) [HC2]
- Blank corrected (470-80) [1, 6]: 420571 and 387799 and 422451 and 372874
- Fold Change [1, 6]: 29.7356 and 27.4185 and 29.8685 and 26.3633
- Blank corrected (470-80) [1, 7]: 400261 and 371225 and 406289 and 348754
- Fold Change [1, 7]: 28.2996 and 26.2467 and 28.7258 and 24.6579
- Blank corrected (470-80) [1, 8]: 327362 and 397295 and 324101 and 372826
- Fold Change [1, 8]: 23.1455 and 28.0899 and 22.9149 and 26.3599
- Blank corrected (470-80) [1, 9]: 379647 and 379271 and 373688 and 369126
- Fold Change [1, 9]: 26.8422 and 26.8156 and 26.4208 and 26.0983

Structure (SMILES): CCc1cccc(N(CC)C(=O)Cn2c(C(=O)N[C@H]3CC[C@H](C(=O)NCCCCCCCC(=O)O)CC3)cc3ccccc32)c1 [NanoLuc Inhibtor 2]
- NanoLuc luminescence (enzyme activity remaining) ([2]; [uM] -0.30103 (log10 concentration)): 0.9
- NanoLuc luminescence (enzyme activity remaining) ([2]; [uM] -0.82391 (log10 concentration)): 1.5 (2×) and 1.6
- NanoLuc luminescence (enzyme activity remaining) ([2]; [uM] -1.34679 (log10 concentration)): 4.4 and 4.7 and 4.6
- NanoLuc luminescence (enzyme activity remaining) ([2]; [uM] -1.86967 (log10 concentration)): 23.6 and 24.5 and 24.3
- NanoLuc luminescence (enzyme activity remaining) ([2]; [uM] -2.39254 (log10 concentration)): 55.8 and 56.1 and 58
- NanoLuc luminescence (enzyme activity remaining) ([2]; [uM] -2.91542 (log10 concentration)): 74.8 and 76.4 and 76
- NanoLuc luminescence (enzyme activity remaining) ([2]; [uM] -3.4383 (log10 concentration)): 81.7 and 82.7 and 82.1

Structure (SMILES): CCc1cccc(N(CC)C(=O)Cn2c(C(=O)N[C@H]3CC[C@H](C(=O)NCCCCCCCC(=O)O)CC3)cc3ccccc32)c1 [NanoLuc inhibitor 2]
- IC50 [3]: 4.2 nM

Structure (SMILES): CCN(C(=O)Cn1c(C(=O)N[C@H]2CC[C@H](C(=O)NCCCCCCCC(=O)O)CC2)cc2sccc21)c1cccc(C)c1 [NanoLuc inhibitor 1]
- IC50 [3]: 31 nM

Structure (SMILES): CC(C)C[C@@H](C=O)NC(=O)[C@H](CC(C)C)NC(=O)[C@H](CC(C)C)NC(=O)OCc1ccccc1 [MG132] (Cbz-Leu-Leu-Leu-aldehyde)
- Blank corrected Raw Data (470-80) ([1]; +dox, MG132 (10uM) alone (DMSO instead of PROTAC)): 83521 and 88764 and 88216 and 91215
- Fold Change ([1]; +dox, MG132 (10uM) alone (DMSO instead of PROTAC), fold of -dox well): 83.7723 and 89.0311 and 88.4814 and 91.4895

Structure (SMILES): CCc1cccc(N(CC)C(=O)Cn2c(C(=O)NC3CCC(C(=O)NCCCCCCCC(=O)NCCCCCCOc4cccc5c4C(=O)N(C4CCC(=O)NC4=O)C5=O)CC3)cc3ccccc32)c1 (stereo not drawn) [NC3]
- degradation of the H-E-N-F substrate protein by Western blot, comparison of NanoTACs [4]: consistently outperforming the first analogue NC1
- viable cells (PI exclusion) ([5]; TNF+SM+IDN): 7.5 and 6.4 and 5.5
- viable cells (PI exclusion) ([5]; Unt (no death stimulus)): 69.5 and 75.6 and 73.1

Structure (SMILES): CCc1cccc(N(CC)C(=O)Cn2c(C(=O)NC3CCC(C(=O)NCCCCCCCC(=O)NCCCCNc4cccc5c4C(=O)N(C4CCC(=O)N(C)C4=O)C5=O)CC3)cc3ccccc32)c1 (stereo not drawn) [NC*]
- NanoLuc luminescence, Blank corrected (470-80) ([1]; 62.5nM, 2h, replicate wells): 6632 and 6164 and 5786
- NanoLuc luminescence, Blank corrected (470-80) ([1]; 62.5nM, 4h, replicate wells): 6756 and 7430 and 5962 and 6824
- NanoLuc luminescence, Blank corrected (470-80) ([1]; 62.5nM, 6h, replicate wells): 6820 and 5574 and 6168
- NanoLuc luminescence, Blank corrected (470-80) ([1]; 62.5nM, 8h, replicate wells): 5136 and 5355 and 4609
- NanoLuc luminescence, Blank corrected (470-80) ([1]; 62.5nM, 10h, replicate wells): 4237 and 3067 and 4015
- NanoLuc luminescence, Blank corrected (470-80) ([1]; 250nM, 2h, replicate wells): 1984 and 2219 and 1857
- NanoLuc luminescence, Blank corrected (470-80) ([1]; 250nM, 4h, replicate wells): 1613 and 1684 and 1340
- NanoLuc luminescence, Blank corrected (470-80) ([1]; 250nM, 6h, replicate wells): 1527 and 1526 and 1826 and 1766
- NanoLuc luminescence, Blank corrected (470-80) ([1]; 250nM, 8h, replicate wells): 1602 and 1230 and 1627
- NanoLuc luminescence, Blank corrected (470-80) ([1]; 250nM, 10h, replicate wells): 919 and 829 and 1005
- NanoLuc luminescence, Blank corrected (470-80) ([1]; 500nM, 2h, replicate wells): 1232 and 850 and 1011 and 825
- NanoLuc luminescence, Blank corrected (470-80) ([1]; 500nM, 4h, replicate wells): 934 and 992 and 902
- NanoLuc luminescence, Blank corrected (470-80) ([1]; 500nM, 6h, replicate wells): 854 and 738 and 679 and 842
- NanoLuc luminescence, Blank corrected (470-80) ([1]; 500nM, 8h, replicate wells): 717 and 620 and 849
- NanoLuc luminescence, Blank corrected (470-80) ([1]; 500nM, 10h, replicate wells): 481 and 501 and 461
